Measurements published in patent publication US11413278B2, “Compounds and methods for promoting stress resistance” (priority 2015, dated 2022).
Read-outs that look alike come from different tables or passages of the source.

Legend:
human PARP1 = molecular target: T1, human PARP1 (Homo sapiens, UniProt P09874); experiment: PARP inhibitor assay (HT Fluorescent Homogeneous PARP Inhibition Assay Kit); format: biochemical; settings: score
T1 construct: purchased Trevigen
Outline: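 Compounds (10 μM final) incubated 30 min, room temperature, dark, with human PARP1, nicotinamide adenine dinucleotide and activated DNA. Fluorescent signal generated by 1 hr cycling with diaphorase and resazurin, then reaction stopped.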

WI-38 cells [1] = experiment: CdCl2 (cadmium) resistance assay; format: cell-based, human
Outline: (§1)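 Resistance to CdCl2 or MMS stress (12 h exposure) was scored in WI-38 fibroblasts pretreated with compound at 0.25–20 μM final, five doses, technical triplicates. MMS plates had compound added 24 h before MMS, after a shift to serum-free DMEM+2% BSA. Significance came from a global variance t-test over two independent runs.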

WI-38 cells [2] = experiment: MMS resistance assay; format: cell-based, human
Outline: as §1

C. elegans = format: in vivo, Caenorhabditis elegans
Outline: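 Survival under oxidative stress: 500 μM H2O2 (final) was added to day-4 adults kept in liquid with compounds, FUdR present, 4 wells per molecule and 0.2% DMSO controls, with daily scoring of viability.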

[3] = test system: phosphorylated γH2A.X and TP53BP1; experiment: DNA damage marker analysis (immuno-staining)
Outline: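 Immunofluorescence read-out for phospho-γH2A.X (Ser-139) and phospho-TP53BP1 (Ser-1778), with DAPI nuclear stain and automated imaging at 10×. WI-38 cells (~8,000 per well) were exposed to small molecules for 24 h after 24 h of culture, with doxorubicin (300 nM, 24 h) or H2O2 (700 μM, 3 h) as positive damage controls.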

WI-38 cells [4] = test system: WI-38 cells
[5] = Exp. 1, WI-38 cells, 10 uM, normalized ATP measurement
[6] = Exp. 2, WI-38 cells, 10 uM, normalized ATP measurement
[7] = score in summary of 38 core set hits
[8] = Experiment 2, WI-38 cells, 10 μM, 24 hrs, no H2O2, normalized marker-positive fraction, n = 3
[9] = Experiment 2, WI-38 cells, 10 μM, 24 hrs, under H2O2 stress, normalized marker-positive fraction, n = 3

T1 sequence (P09874 whole entry): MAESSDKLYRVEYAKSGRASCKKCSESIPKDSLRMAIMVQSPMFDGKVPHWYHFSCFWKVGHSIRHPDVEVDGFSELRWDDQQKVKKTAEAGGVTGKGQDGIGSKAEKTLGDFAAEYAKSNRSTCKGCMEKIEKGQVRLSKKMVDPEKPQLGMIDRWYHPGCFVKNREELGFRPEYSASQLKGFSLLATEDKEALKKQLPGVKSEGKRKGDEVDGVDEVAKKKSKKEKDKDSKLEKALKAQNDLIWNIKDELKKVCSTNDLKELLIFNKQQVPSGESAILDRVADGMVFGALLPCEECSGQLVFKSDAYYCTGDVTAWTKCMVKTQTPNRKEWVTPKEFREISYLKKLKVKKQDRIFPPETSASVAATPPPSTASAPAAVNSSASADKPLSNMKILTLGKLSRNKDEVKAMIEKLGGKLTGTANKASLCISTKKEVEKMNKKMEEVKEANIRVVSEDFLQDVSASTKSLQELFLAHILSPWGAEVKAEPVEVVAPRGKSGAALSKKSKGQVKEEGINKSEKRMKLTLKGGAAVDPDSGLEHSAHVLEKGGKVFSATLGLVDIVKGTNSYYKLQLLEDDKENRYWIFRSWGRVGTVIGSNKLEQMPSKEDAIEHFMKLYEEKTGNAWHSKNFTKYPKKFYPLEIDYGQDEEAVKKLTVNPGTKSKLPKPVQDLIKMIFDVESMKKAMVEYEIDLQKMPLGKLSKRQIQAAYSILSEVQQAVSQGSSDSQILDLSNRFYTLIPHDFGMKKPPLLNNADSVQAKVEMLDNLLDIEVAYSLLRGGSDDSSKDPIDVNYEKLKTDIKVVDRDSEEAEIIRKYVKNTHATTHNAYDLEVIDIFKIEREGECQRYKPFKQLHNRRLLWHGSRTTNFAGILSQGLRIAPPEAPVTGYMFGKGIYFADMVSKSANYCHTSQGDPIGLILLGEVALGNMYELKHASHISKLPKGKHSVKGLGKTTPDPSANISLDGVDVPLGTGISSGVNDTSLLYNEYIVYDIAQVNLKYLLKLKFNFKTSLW

## COc1cc2c(no[n+]2[O-])n2nnnc12 [O11]
Human PARP1
  L = PARP inhibition: 0
WI-38 cells [1]
  CdCl2-resistant: YES
  H2O2- & CdCl2-resistant: YES
WI-38 cells [1]; [5]
  Exp. 1, under CdCl2 stress treatment, at 10 uM (fold change): 3.78 fold change
WI-38 cells [1]; [6]
  Exp. 2, under CdCl2 stress treatment, at 10 uM (fold change): 2.80 fold change
WI-38 cells [1]; WI-38 cells, 10 μM
  CdCl2-resistant: YES
WI-38 cells [1]; WI-38 cells, 10 μM, both stressors
  H2O2- & CdCl2-resistant: YES
WI-38 cells [1]; YES/NO
  Assay 4: H2O2- & Cd-resistant: YES
WI-38 cells [1]; YES/NO, * indicates partial
  Assay 2: Cadmium-resistant: YES
WI-38 cells [1]; [7]
  A = Cadmium resistant: 1
WI-38 cells [1]; summary score
  A = Cadmium resistant: 1
  C = H2O2- & Cd-resistant: 1
WI-38 cells [2]; [5]
  Exp. 1, under MMS stress treatment, at 10 uM (fold change): 0.97 fold change
WI-38 cells [2]; [6]
  Exp. 2, under MMS stress treatment, at 10 uM (fold change): 4.20 fold change
WI-38 cells [2]; [7]
  B = MMS resistant: 0
WI-38 cells [2]; summary score
  B = MMS resistant: 0
  D = Triple resistant: 0
C. elegans; 60 μM, in liquid, wild type, with FuDR
  H2O2-resistance assay, 1st experiment: YES;
C. elegans; score
  N = H2O2-resistance in woms: 0
C. elegans; summary score
  L = H2O2-resistance in worms: 0
[3]; 10 μM, 24 hrs, absence of H2O2
  Percentage of both γH2A.X- and TP53BP1-positive cells (DNA damage markers): did not appear to increase both
[3]; Experiment 1, WI-38 cells, 10 μM, 24 hrs, no H2O2, normalized marker-positive fraction, n = 3
  Experiment 1, H2A.X-P DNA damage foci staining (no H2O2 stress treatment), at 10 uM: 83.1%,
[3]; [8]
  Experiment 2, H2A.X-P DNA damage foci staining (no H2O2 stress treatment), at 10 uM: 91.2%,
  Experiment 2, TP53BP1-P DNA damage foci staining (no H2O2 stress treatment), at 10 uM: 154.0%,
[3]; [9]
  Experiment 2, H2A.X-P DNA damage foci staining (under H2O2 stress treatment), at 10 uM: 151.7%,
  Experiment 2, TP53BP1-P DNA damage foci staining (under H2O2 stress treatment), at 10 uM: 560.5%,
[3]; negative point, cultured human cells
  R = Potential DNA damaging: 0
[3]; summary score
  P = Potential DNA-damaging: 0
WI-38 cells [4]; 10 uM, 24 h, then 700 μM H2O2 3 h, normalized to DMSO
  Screen 1: Screening, at 10 uM (viability assay by ATP measurement, normalized fold-change shown, >=2.5): 3.42 fold-change
WI-38 cells [4]; 10 uM, H2O2 stress
  Screen 2: Dose response, at 10 uM (viability assay by ATP measurement, normalized fold-change shown, >=1.5): 6.71 fold-change
WI-38 cells [4]; 20 uM, H2O2 stress
  Screen 3: Dose response, at 20 uM (viability assay by ATP measurement, normalized fold-change shown): 3.00 fold-change
WI-38 cells [4]; Exp. 1, WI-38 cells, 10 uM, normalized ATP measurement (Table 12)
  Exp. 1, under H2O2 stress treatment, at 10 uM (fold change): 3.53 fold change
WI-38 cells [4]; Exp. 2, WI-38 cells, 10 uM, normalized ATP measurement (Table 12)
  Exp. 2, under H2O2 stress treatment, at 10 uM (fold change): 2.10 fold change
WI-38 cells [4]; Experiment 1, WI-38 cells, 10 uM (run along with HDF cells)
  Experiment 1, WI-38 cells (under H2O2 stress treatment), at 10 uM (fold change): 2.52 fold change
WI-38 cells [4]; Experiment 2, WI-38 cells, 10 uM (run along with HDF cells)
  Experiment 2, WI-38 cells (under H2O2 stress treatment), at 10 uM (fold change): 28.12 fold change
WI-38 cells [4]; H2O2-resistance of WI-38 cells, cherry-picked retest, 10 uM
  Dose response retest, at 10 uM (fold change): 6.71 fold change
WI-38 cells [4]; H2O2-resistance of WI-38 cells, cherry-picked retest, 20 uM
  Dose response retest, at 20 uM (fold change): 3.00 fold change
WI-38 cells [4]; H2O2-resistance of WI-38 cells, library screening, 10 uM
  Library Screening, at 10 uM (fold change): 3.42 fold change
WI-38 cells [4]; WI-38 cells, 10 μM, (*) = compromised ability to protect cells from H2O2, could be due to stability issue
  H2O2-resistant: YES
WI-38 cells [4]; WI-38 cells, H2O2 3 hrs, 10 uM, normalized ATP measurement
  H2O2 stress treatment (3 hrs), at 10 uM (fold change): 7.18 fold change
WI-38 cells [4]; WI-38 cells, no H2O2 stress, 10 uM, normalized ATP measurement
  No H2O2 stress treatment, at 10 uM (fold change): 0.75 fold change
WI-38 cells [4]; YES/NO, if NO, possibly due to repeated freezing/thawing of stocks
  Assay 1: H2O2-resistant: YES
WI-38 cells [4]; asterisks indicate the loss of the ability to protect cells from H2O2 over time
  H2O2-resistant: YES
WI-38 cells [4]; derived from dose response curves, 0.6-20 uM, H2O2-resistance of WI-38 cells
  EC50: 4.4 µM
WI-38 cells [4]; read-out: Est. ED50, dose response 0.6-20 μM, H2O2-resistance
  EC50: 4.4 µM
